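Step 1: Grow cells in 96-well plates. Step 2: Expose to compound for 48 hours at 5 concentrations. Step 3: Interpolate endpoints linearly; if unreached, use highest concentration. GI50 = concentration required for 50% inhibition of growth.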 Calls of active or inactive are those of the source. Rule as the data show it: active = GI50 up to about 1.1 µM and inactive = higher.
Columns and labels:
Test in all cases: inhibition of tumour cell growth, NCI panel, 48 h
NCI-H226 = test system: NCI-H226
U-251 = test system: U-251
SW-620 = test system: SW-620
HCT-116 = test system: HCT-116
OVCAR-3 = test system: OVCAR-3
ACHN = test system: ACHN
PC-3 = test system: PC-3
CCRF-CEM = test system: CCRF-CEM
SK-MEL-28 = test system: SK-MEL-28
BT-549 = test system: BT-549
SF-268 = test system: SF-268
SR = test system: SR
T47D = test system: T47D
MCF7 = test system: MCF7
K562 = test system: K562
OVCAR-8 = test system: OVCAR-8
SK-MEL-2 = test system: SK-MEL-2
LOX IMVI = test system: LOX IMVI
Hs-578T = test system: Hs-578T
EKVX = test system: EKVX

Measured: GI50

CCSc1nc(C)nc2c1sc1nc3ccccc3n12
inactive: NCI-H226 > 100 µM | U-251 > 100 µM | SW-620 > 100 µM | HCT-116 > 100 µM | OVCAR-3 > 100 µM | ACHN > 100 µM | PC-3 > 100 µM | CCRF-CEM > 100 µM | SK-MEL-28 > 100 µM | BT-549 > 100 µM | SF-268 > 100 µM | SR > 100 µM | T47D > 100 µM | MCF7 > 100 µM | K562 > 100 µM | OVCAR-8 > 100 µM | SK-MEL-2 > 100 µM | LOX IMVI > 100 µM | Hs-578T 24.2 µM | EKVX > 100 µM

CO/N=C(\C)c1cccc(Nc2nc3ccccc3c3occc23)c1
inactive: NCI-H226 1.56 µM | U-251 15.9 µM | HCT-116 11.6 µM | OVCAR-3 16.3 µM | ACHN 14 µM | PC-3 14.5 µM | CCRF-CEM 12.5 µM | SK-MEL-28 14.3 µM | BT-549 13.5 µM | SF-268 15.4 µM | SR 11.9 µM | T47D 11.1 µM | MCF7 18.1 µM | K562 16.4 µM | OVCAR-8 17.1 µM | LOX IMVI 15.2 µM | Hs-578T 10.9 µM | EKVX 13.6 µM

CS(=O)(=O)CCC(N)P(=O)(O)O (centres undefined)
inactive: NCI-H226 > 100 µM | U-251 > 100 µM | SW-620 > 100 µM | HCT-116 > 100 µM | OVCAR-3 > 100 µM | ACHN > 100 µM | PC-3 > 100 µM | CCRF-CEM > 100 µM | SK-MEL-28 > 100 µM | BT-549 > 100 µM | SF-268 > 100 µM | SR > 100 µM | T47D > 100 µM | MCF7 > 100 µM | K562 > 100 µM | OVCAR-8 > 100 µM | SK-MEL-2 > 100 µM | LOX IMVI > 100 µM | Hs-578T > 100 µM | EKVX > 100 µM

O=C(O)CO[C@@]12C#C/C=C\C#C[C@@H]3N(C(=O)Oc4ccccc4)c4ccccc4[C@]14O[C@@]34CCC2
inactive: NCI-H226 71.9 µM | U-251 19.1 µM | SW-620 47.6 µM | HCT-116 33.4 µM | OVCAR-3 47.1 µM | ACHN 85.9 µM | PC-3 26.2 µM | CCRF-CEM 29.7 µM | SK-MEL-28 52.8 µM | BT-549 30.1 µM | SF-268 14.3 µM | SR 55.2 µM | T47D 10.3 µM | MCF7 14.6 µM | K562 23.7 µM | OVCAR-8 44.6 µM | SK-MEL-2 16.2 µM | LOX IMVI 40.5 µM | Hs-578T 19.4 µM | EKVX > 100 µM

CCOP(=O)(OCC)/C(C#N)=C/c1cccn1C
inactive: NCI-H226 > 100 µM | U-251 > 100 µM | SW-620 > 100 µM | HCT-116 > 100 µM | OVCAR-3 > 100 µM | ACHN > 100 µM | PC-3 > 100 µM | CCRF-CEM 25.9 µM | SK-MEL-28 > 100 µM | BT-549 > 100 µM | SF-268 > 100 µM | SR > 100 µM | T47D > 100 µM | MCF7 > 100 µM | OVCAR-8 > 100 µM | SK-MEL-2 > 100 µM | LOX IMVI > 100 µM | Hs-578T > 100 µM | EKVX > 100 µM

CC(=O)NC1=CC(=O)C=C(Cl)C1=O
inactive: NCI-H226 > 100 µM | U-251 > 100 µM | SW-620 19 µM | HCT-116 > 100 µM | OVCAR-3 > 100 µM | ACHN > 100 µM | PC-3 > 100 µM | CCRF-CEM 22.9 µM | SK-MEL-28 > 100 µM | BT-549 > 100 µM | SF-268 > 100 µM | SR 22.4 µM | T47D > 100 µM | MCF7 28.7 µM | K562 33.7 µM | OVCAR-8 > 100 µM | SK-MEL-2 59.8 µM | Hs-578T > 100 µM | EKVX > 100 µM

COC(=O)c1ccc(C)cc1/C=C1\Cc2ccc(C)cc2C1=O
inactive: NCI-H226 10.1 µM | U-251 12.6 µM | SW-620 19.5 µM | HCT-116 11.1 µM | OVCAR-3 6.52 µM | ACHN 30.8 µM | PC-3 17.9 µM | CCRF-CEM 18.2 µM | SK-MEL-28 16.6 µM | BT-549 4.91 µM | SF-268 14.2 µM | SR 3.9 µM | T47D 17.1 µM | MCF7 11.2 µM | K562 6.58 µM | OVCAR-8 21.2 µM | LOX IMVI 12.9 µM | Hs-578T 23.1 µM | EKVX 26.2 µM

COc1ccc(/C=C(\C#N)c2nc(N)nc(N3N=C(C)CC3(C)C)n2)c(O)c1
inactive: NCI-H226 16.7 µM | U-251 26.7 µM | HCT-116 17.6 µM | OVCAR-3 15 µM | ACHN 17.1 µM | PC-3 37.9 µM | CCRF-CEM 40.2 µM | SK-MEL-28 14.5 µM | BT-549 34 µM | SF-268 17.2 µM | SR 16.9 µM | T47D 15.9 µM | MCF7 18.5 µM | K562 21.3 µM | OVCAR-8 32.7 µM | SK-MEL-2 20.7 µM | Hs-578T 18.3 µM | EKVX 20.5 µM

N#CCCSC1SC(=C2SC3=C(SCCS3)S2)SC1SCCC#N (centres undefined)
inactive: U-251 > 100 µM | SW-620 > 100 µM | HCT-116 > 100 µM | OVCAR-3 > 100 µM | ACHN > 100 µM | PC-3 > 100 µM | CCRF-CEM > 100 µM | SK-MEL-28 > 100 µM | BT-549 > 100 µM | SF-268 > 100 µM | SR > 100 µM | T47D > 100 µM | MCF7 > 100 µM | K562 > 100 µM | OVCAR-8 > 100 µM | SK-MEL-2 > 100 µM | LOX IMVI > 100 µM | Hs-578T > 100 µM | EKVX > 100 µM

O=[N+]([O-])c1cccc(-c2cn3c(n2)Cc2ccccc2C3)c1
inactive: NCI-H226 > 100 µM | U-251 39.7 µM | SW-620 > 100 µM | HCT-116 23.9 µM | ACHN > 100 µM | PC-3 77.4 µM | CCRF-CEM 15.9 µM | SK-MEL-28 > 100 µM | BT-549 > 100 µM | SF-268 > 100 µM | SR 51.4 µM | T47D 17.1 µM | MCF7 3.88 µM | K562 > 100 µM | OVCAR-8 99.1 µM | SK-MEL-2 34.9 µM | LOX IMVI 39.8 µM | Hs-578T 85.3 µM | EKVX 90.2 µM

Oc1cc(-c2cccc(Br)c2)nc2cc3c(cc12)OCO3
inactive: NCI-H226 6.75 µM | U-251 3.56 µM | SW-620 3.61 µM | HCT-116 3.53 µM | OVCAR-3 3.01 µM | ACHN 5.32 µM | PC-3 5.43 µM | CCRF-CEM 8.38 µM | SK-MEL-28 2.77 µM | BT-549 3.6 µM | SF-268 4.36 µM | SR 1.93 µM | T47D 14.6 µM | MCF7 18.7 µM | K562 3.74 µM | OVCAR-8 4.57 µM | SK-MEL-2 2.16 µM | LOX IMVI 2.75 µM | Hs-578T 3.32 µM

CC(C)(C)OC(=O)NCCC(N)=S
inactive: NCI-H226 > 100 µM | U-251 > 100 µM | SW-620 > 100 µM | HCT-116 > 100 µM | OVCAR-3 > 100 µM | ACHN > 100 µM | PC-3 > 100 µM | CCRF-CEM 57.5 µM | SK-MEL-28 > 100 µM | BT-549 > 100 µM | SF-268 > 100 µM | SR > 100 µM | T47D > 100 µM | MCF7 > 100 µM | K562 > 100 µM | OVCAR-8 > 100 µM | Hs-578T > 100 µM | EKVX > 100 µM

COc1cc2c(cc1OC)C(Cc1ccccc1CCCl)=NCC2
inactive: NCI-H226 31.3 µM | U-251 53.2 µM | SW-620 42 µM | HCT-116 21.1 µM | OVCAR-3 > 100 µM | ACHN 73.3 µM | PC-3 31.1 µM | CCRF-CEM 58.7 µM | SK-MEL-28 > 100 µM | BT-549 40.3 µM | SF-268 53 µM | SR 84.1 µM | T47D 31.8 µM | MCF7 49.4 µM | K562 30.3 µM | OVCAR-8 47.2 µM | SK-MEL-2 > 100 µM | Hs-578T 73.5 µM | EKVX > 100 µM

Cc1ccc(Cc2n[nH]c(=O)[nH]2)cc1
inactive: NCI-H226 > 100 µM | U-251 > 100 µM | SW-620 > 100 µM | HCT-116 > 100 µM | OVCAR-3 > 100 µM | ACHN > 100 µM | PC-3 > 100 µM | CCRF-CEM > 100 µM | SK-MEL-28 > 100 µM | BT-549 > 100 µM | SR > 100 µM | T47D > 100 µM | MCF7 28.6 µM | K562 > 100 µM | OVCAR-8 > 100 µM | SK-MEL-2 > 100 µM | LOX IMVI > 100 µM | Hs-578T > 100 µM | EKVX > 100 µM

Cc1cc(S(=O)(=O)Nc2nc(-c3ccccn3)n[nH]2)c(S)cc1Cl
inactive: NCI-H226 12.3 µM | U-251 13.3 µM | SW-620 12.2 µM | HCT-116 16.1 µM | OVCAR-3 17.2 µM | ACHN 15.8 µM | PC-3 31.1 µM | SK-MEL-28 35.1 µM | BT-549 17.9 µM | SF-268 17.7 µM | SR 24.3 µM | T47D 15.3 µM | MCF7 31.3 µM | OVCAR-8 11 µM | SK-MEL-2 10.3 µM | LOX IMVI 27.2 µM | Hs-578T 28.8 µM | EKVX 16.1 µM

— ChEMBL document CHEMBL1201862, “PubChem BioAssay data set” (2004)
